{"source": "patent US12208080B2", "about": "“Compositions and methods for modulation of extracellular vesicle release and treatment of neurological disorders” (GEORGE MASON RESEARCH FOUNDATION, INC., priority 2018, dated 2025)", "format_in_all_cases": "cell-based", "key": {"[1]": {"test_system": "HIV-1 infected monocytes (U1)", "assay": "RT-qPCR of EV-associated HIV-1 TAR and env RNA from U1 cells", "settings": "5 days; for reduction in TAR RNA within EVs: average from two replicates; for incorporation of TAR RNA into EVs / incorporation of env RNA into EVs: 1, 5, 20, 50 μM; for incorporation of TAR RNA into EVs: FIG. 3A; for incorporation of env RNA into EVs: FIG. 3B; for env RNA within EVs: FIG. 9C"}, "[2]": {"test_system": "HIV-1 infected U1 monocytic cells", "assay": "MTT cell viability assay", "settings": "CBD 1, 5, 10 μM, THC 1, 5, 10 μg/ml, 5 days, FIG. 7", "procedure": "FIG. 7 is a graph showing cell viability analysis of cannabidiol components on HIV-1 infected monocytes. HIV-1 infected U1 monocytic cells (1×10^6) were treated with CBD (green bars) at 1, 5, 10 and 50 μM) or THC (blue bars) at 1, 5, 10 and 50 μg/mL) every day for 5 days. Cell viability was determined using the MTT assay. Student's t-test was used for statistical analysis, where n.s is not significant, *p-value≤0.05; **p-value≤0.01, ***p-value≤0.001.\nCells were cultured in RPMI with 10% exosome-free FBS at 10^6 cells per well in 6 well plates. Cells were treated with 0.005% ethanol (control), CBD (1, 5 10, 50 μm) and THC (1, 5, 10, 50 μg/mL) once per day for 5 days. The MTT assay was used to measure cell death according to manufacturer's protocol (Sigma). After incubating with MTT solution for 2 h, the culture medium was aspirated and 1 mL of MTT solvent was added to each well. Cell viability was determined by the formation of formazan crystal and measured by absorbance at 590 nm and 620 nm, as previously described (Cotto et al., 2018, Cocaine and HIV-1 Tat Disrupt Cholesterol Homeostasis in Astrocytes: Implications for HIV-Associated Neurocognitive Disorders in Cocaine User Patients. Glia, 66(4), 889-902).\nSupernatants were harvested and analyzed using ZetaView NTA."}, "[3]": {"test_system": "HIV-1 infected monocytes (U1)", "assay": "RT-qPCR of intracellular HIV-1 TAR and env RNA in U1 cells (viral transcription)", "settings": "for intracellular TAR RNA (HIV-1 transcription) / intracellular env RNA (HIV-1 transcription): 1, 5, 20, 50 μM, 5 days, FIG. 4A; for intracellular TAR RNA / intracellular env RNA: CBD 1, 5, 10 μM, THC 1, 5, 10 μg/mL every day for 5 days, FIG. 15A", "procedure": "HIV-1 infected monocytes (U1) were treated with CBD (1, 5, 20, and 50 μM) or THC (1, 5, 20, and 50 μM) for 5 days. Total RNA was isolated from cell pellets and analyzed by RT-qpCR for TAR RNA and env RNA. Student's t-test was used to determine significance (***=p<0.001, and**=p<0.01).\nFIGS. 15A-15C are graphs and gels showing cannabidiols lower intracellular viral transcription and downstream viral products. U1 cells (1×10^6) were treated with a titration of CBD (1, 5, 10 μM) and THC (1, 5, 10 μg/mL) every day for 5 days. A) Intracellular RNA was isolated and analyzed through RT-qPCR for HIV-1 viral transcripts TAR and env. Each bar represents an average of three independent replicates. B) U1 cells (2×10^6) were treated with a titration of CBD (1, 5, 10 μM) every day for 5 days. Cells pellets were lysed, run through SDS-PAGE, and western blotted for (p-)/NF-κB, autophagosomal markers (p63, LC3), EV biogenesis marker VPS4, viral markers (gp120, Nef, p24), and Actin. C) U1 cells (5×10^6) were treated±CBD (10 μM) and Flavopiridol hydrochloride (50 nM; indicated as Flavo) and incubated for the following time points: 0 minutes, 2 hours and 6 hours. Cells were cross-linked with 1% formaldehyde solution and ChIP-ed for IgG and Pol II. ChIP DNA samples were analyzed via qPCR for TAR and env. Student's t-test was used for statistical analysis, where *p-value≤0.05; **p-value≤0.01, ***p-value≤0.001.\nTo determine if the observed reduction in EV-associated viral RNA was a result of a decrease in HIV-1 transcription rather than an alteration in the packaging of these viral RNAs into EVs, intracellular RNA was analyzed to assess for changes HIV-1 transcription. […] The differences in inhibition of short transcripts imply targeting at different stages of transcription with CBD inhibiting transcription initiation and THC inhibiting transcription elongation. These differences in transcriptional regulation can be further analyzed using a three-state L TR mathematical model to depict changes in viral RNA and protein production over extended periods of time (FIG. 4B).\nFor the isolation of total RNA, cells were harvested, washed once in 1×PBS without calcium or magnesium and resuspended in 50 μL of 1×PBS. For the isolation of total RNA from EVs, Nanotrap particles were incubated and harvested as described above, then resuspended in 50 μL of 1×PBS without calcium or magnesium. Total RNA was isolated from cell pellets and NT80/82 pellets bound with EVs using Trizol Reagent (Invitrogen) as described by the manufacturer's protocol. cDNA was generated using GoScript Reverse Transcription Systems (Promega) using Envelope Reverse: (5′-TGGGATAAGGGTCTGAAACG-3′ (SEQ ID NO:1); Tm=58° C.), and TAR Reverse: (5′-CAACAGACGGGCACACACTAC-3′ (SEQ ID NO:2), Tm=58° C.) primers. Serial dilutions of DNA from a CEM T-cell line containing a single copy of HIV-1 LAV provirus per cell (8E5 cells) were used as the quantitative standards. cDNA samples (2 μL/well) were plated into a Master Mix (18 μL/well) containing IQ Supermix (Bio-Rad), TAR Forward Primer (5′-GGTCTCTCTGGTTAGACCAGATCTG-3′ (SEQ ID NO:3)), TAR Reverse Primer (5′-CAACAGACGGGCACACACTAC-3′ (SEQ ID NO:4)), and TAR Probe (5′56-FAM-AG CCTCAATAAAGCTTGCCTTGAGTGCTTC-36-TAMSp-3′ (SEQ ID NO:5)). RT-qPCR conditions were as follows: one cycle for 2 min at 95° C. followed by 41 cycles of 95° C. for 15 s and 58° C. for 40 s. Reactions were performed in triplicate using the BioRad CFX96 Real Time System. Quantitation was determined using cycle threshold (Ct) values relative to the 8E5 standard curve using the BioRad CFX Manager Software. Analysis of generated raw data was analyzed using Microsoft Excel 2016.\nTherefore, U1 monocytes were treated with a titration of CBD (1, 5, 10 μM) and THC (1, 5, 10 μg/mL) every day for 5 days. Total RNA was isolated from the harvested cell pellets followed by RT-qPCR analysis of 3 independent replicates for TAR and env RNAs."}, "[4]": {"test_system": "HIV-1 infected monocytes (U1)", "assay": "Western blot/densitometry of EV-associated proteins (NT80/82-enriched supernatant) from U1 cells", "settings": "for CD81 (EV marker) in EVs / EV-associated Nef / EV-associated gp120: 1, 5, 20, 50 μM, FIG. 2C; for EV CD81 level / EV-associated Nef (30 kDa) / EV-associated myristoylated Nef dimer (70 kDa): CBD 1, 5, 10 μM, THC 1, 5, 10 μg/mL, FIG. 9A; for increase in EV-associated gp160 (densitometry): maximum, CBD lane 4 (10 μM), THC lane 7 (10 μg/mL)"}, "[5]": {"settings": "CBD 1, 5, 10 μM, THC 1, 5, 10 μg/mL"}, "[6]": {"settings": "10 μM every day for 5 days, FIG. 15A lane 4"}}}
{"smiles": "C=C(C)[C@@H]1CCC(C)=C[C@H]1c1c(O)cc(CCCCC)cc1O", "note": "[CBD, 2-[1R-3-methyl-6R-(1-methylethenyl)-2-cyclohexen-1-yl]-5-pentyl-1,3-benzenediol]", "values": [{"measurement": "reduction in TAR RNA within EVs", "setting": "[1]; 5 μM, FIG. 9B", "result": 55, "unit": "%"}, {"measurement": "reduction in TAR RNA within EVs", "setting": "[1]; 10 μM, FIG. 9B", "result": 86, "unit": "%"}, {"measurement": "incorporation of TAR RNA into EVs", "setting": "[1]", "result": "statistically significant, dose-dependent decrease"}, {"measurement": "incorporation of env RNA into EVs", "setting": "[1]", "result": "statistically significant, dose-dependent decrease"}, {"measurement": "dose-dependent decrease in EV-associated TAR RNA", "setting": "[1]; CBD 1, 5, 10 μM, THC 1, 5, 10 μg/mL, FIG. 9B", "result": "dose-dependent decrease"}, {"measurement": "env RNA within EVs", "setting": "[1]; [5]", "result": "reduction"}, {"measurement": "cell viability", "setting": "[2]", "result": "no effects on cell viability"}, {"measurement": "decrease in intracellular TAR RNA compared to untreated control", "setting": "[3]; [6]", "result": 95, "unit": "%"}, {"measurement": "decrease in intracellular env RNA compared to untreated control", "setting": "[3]; [6]", "result": 96, "unit": "%"}, {"measurement": "intracellular TAR RNA (HIV-1 transcription)", "setting": "[3]", "result": "decrease of both transcripts"}, {"measurement": "intracellular env RNA (HIV-1 transcription)", "setting": "[3]", "result": "decrease of both transcripts"}, {"measurement": "intracellular TAR RNA", "setting": "[3]", "result": "dose-dependent decrease"}, {"measurement": "intracellular env RNA", "setting": "[3]", "result": "dose-dependent decrease"}, {"measurement": "CD81 (EV marker) in EVs", "setting": "[4]; U1, 5 days", "result": "reduction in CD81"}, {"measurement": "EV-associated Nef", "setting": "[4]; U1, 5 days", "result": "dose-dependent decrease"}, {"measurement": "EV-associated gp120", "setting": "[4]; U1, 5 days", "result": "dose-dependent decrease"}, {"measurement": "reduction in EV-associated gp120 (densitometry)", "setting": "[4]; U1, CBD 1, 5, 10 μM (lanes 2-4), 5 days", "result": "39-58%"}, {"measurement": "EV CD81 level", "setting": "[4]; U1, 5 days", "result": "decreased"}, {"measurement": "EV-associated Nef (30 kDa)", "setting": "[4]; U1, 5 days", "result": "dose-dependent decrease"}, {"measurement": "EV-associated myristoylated Nef dimer (70 kDa)", "setting": "[4]; U1, 5 days", "result": "dose-dependent decrease"}, {"measurement": "reduction in EV CD81 expression (densitometry)", "setting": "[4]; U1, low titer CBD (lane 2, 1 μM), 5 days, FIG. 10A", "result": 80, "unit": "%"}, {"measurement": "decrease in EV-associated Nef (30 kDa), densitometry", "setting": "[4]; greatest reduction, lane 3 (CBD 5 μM), FIG. 10", "result": "up to 79%"}, {"measurement": "increase in EV-associated gp160 (densitometry)", "setting": "[4]", "result": "up to 125%"}]}
{"smiles": "CCCCCc1cc(O)c2c(c1)OC(C)(C)[C@@H]1CCC(C)=C[C@@H]21", "note": "[THC, Δ9-tetrahydrocannabinol]", "values": [{"measurement": "incorporation of TAR RNA into EVs", "setting": "[1]", "result": "statistically significant, dose-dependent decrease"}, {"measurement": "incorporation of env RNA into EVs", "setting": "[1]", "result": "statistically significant, dose-dependent decrease"}, {"measurement": "env RNA within EVs", "setting": "[1]; [5]", "result": "reduction"}, {"measurement": "cell viability", "setting": "[2]", "result": "no effects on cell viability"}, {"measurement": "intracellular TAR RNA (HIV-1 transcription)", "setting": "[3]", "result": "only resulting in a decrease in the env RNA"}, {"measurement": "intracellular env RNA (HIV-1 transcription)", "setting": "[3]", "result": "decrease in the env RNA"}, {"measurement": "intracellular TAR RNA", "setting": "[3]", "result": "not TAR RNA"}, {"measurement": "intracellular env RNA", "setting": "[3]", "result": "only treatment with the highest concentration of THC resulted in a significant decrease"}, {"measurement": "CD81 (EV marker) in EVs", "setting": "[4]; U1, 5 days", "result": "reduction in CD81"}, {"measurement": "EV-associated Nef", "setting": "[4]; U1, 5 days", "result": "dose-dependent decrease"}, {"measurement": "EV-associated gp120", "setting": "[4]; U1, 5 days", "result": "dose-dependent decrease"}, {"measurement": "EV CD81 level", "setting": "[4]; U1, 5 days", "result": "decrease in CD81"}, {"measurement": "EV-associated Nef (30 kDa)", "setting": "[4]; U1, 5 days", "result": "dose-dependent decrease"}, {"measurement": "EV-associated myristoylated Nef dimer (70 kDa)", "setting": "[4]; U1, 5 days", "result": "dose-dependent decrease"}, {"measurement": "decrease in EV-associated myristoylated Nef dimer (70 kDa), densitometry", "setting": "[4]; greatest reduction, lane 7 (THC 10 μg/mL), FIG. 10", "result": "up to 37%"}, {"measurement": "increase in EV-associated gp160 (densitometry)", "setting": "[4]", "result": "≤ 57", "unit": "%"}]}
